Literature values as cited in patent US20250114375A1, “PHARMACEUTICAL COMPOSITION OF LIFITEGRAST AND LOTEPREDNOL ETABONATE” (ORBICULAR PHARMACEUTICAL TECHNOLOGIES PRIVATE LIMITED, priority 2022, published 2025).

Experiments:
[1] = biological target: T1, glucocorticoid receptors (Homo sapiens, UniProt P04150); details: inactive carboxylic acid metabolite of loteprednol etabonate
T1 sequence (P04150 1-777): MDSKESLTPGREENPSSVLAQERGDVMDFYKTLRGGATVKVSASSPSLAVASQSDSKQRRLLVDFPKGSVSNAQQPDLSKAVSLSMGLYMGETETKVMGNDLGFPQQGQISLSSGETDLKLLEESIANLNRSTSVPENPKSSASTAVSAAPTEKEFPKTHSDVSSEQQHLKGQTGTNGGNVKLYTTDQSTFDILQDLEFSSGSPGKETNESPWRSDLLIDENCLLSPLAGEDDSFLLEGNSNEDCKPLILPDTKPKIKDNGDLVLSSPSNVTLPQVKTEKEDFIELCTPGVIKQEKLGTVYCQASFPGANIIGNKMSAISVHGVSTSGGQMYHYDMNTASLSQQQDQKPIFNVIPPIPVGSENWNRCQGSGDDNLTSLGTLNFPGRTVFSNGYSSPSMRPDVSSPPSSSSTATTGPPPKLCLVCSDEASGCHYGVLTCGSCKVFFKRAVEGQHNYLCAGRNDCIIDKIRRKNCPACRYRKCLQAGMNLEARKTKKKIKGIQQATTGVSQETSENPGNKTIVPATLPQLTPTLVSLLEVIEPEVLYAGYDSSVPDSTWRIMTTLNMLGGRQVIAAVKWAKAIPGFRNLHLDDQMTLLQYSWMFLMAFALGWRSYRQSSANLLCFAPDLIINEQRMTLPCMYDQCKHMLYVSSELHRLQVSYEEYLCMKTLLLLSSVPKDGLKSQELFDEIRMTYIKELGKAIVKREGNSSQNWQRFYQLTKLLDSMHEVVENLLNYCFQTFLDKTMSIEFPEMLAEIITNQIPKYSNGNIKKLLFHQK

[2] = test system: conjunctival goblet cells; details: in vivo

Compound	binding to glucocorticoid receptors [1]	increase of goblet cell area [2]	increase of the number of conjunctival goblet cells [2]
CCOC(=O)OC1(C(=O)O)CCC2C3CCC4=CC(=O)C=CC4(C)C3C(O)CC21C (stereo not drawn) [PJ-91]	does not bind		
CS(=O)(=O)c1cccc(C[C@H](NC(=O)c2c(Cl)cc3c(c2Cl)CCN(C(=O)c2ccc4ccoc4c2)C3)C(=O)O)c1 [Lifitegrast]		22%	39%
